{"source": "patent EP0414895A1", "about": "“OROTATE OF $g(a)-AMINO-$g(b)-PHENYL-BUTYRIC ACID” (NAUCHNO-PROIZVODSTVENNOE OBIEDINENIE \"BIOLAR\", priority 1989, dated 1990)", "key": {"Mäuse [1]": {"test_system": "Mäuse", "assay": "Conflict situation (punished water intake)", "assay_type": "in vivo", "conditions": "45 to 120 min before test", "excerpt": "Es wurde auch die Wirkung der erfindungsgemässen Verbindung unter Bedingungen einer Konfliktsituation an männlichen Mäusen (Gruppe aus I0 Mäusen) untersucht. Vorläufig wurde den Mäusen das Wasser für 48 Stunden entzogen, danach wurden ihnen 45 bis I20 Minuten vor dem Versuch die Verbindungen intraperitoneal eingeführt und die Tiere wurden in der Kammer untergebracht, wo sich eine Wassertränke befand. Im Augenblick der Wassereinnahme bekam es einen elektrischen Schlag, der am Zähler registriert wurde. In der Prüfkammer befand sich das Tier innerhalb von 3 Minuten. Für diese Zeit wurden die Zahl der Wassereinnahmen sowie die Lazenzperiode - die Zeit zwischen dem Unterbringen des Tiers in der Kammer und der ersten Wassereinnahme - registriert. Die durchschnittlichen Angaben sind in der Tabelle 5 angeführt."}, "Mäuse [2]": {"test_system": "Mäuse", "assay": "Habituation study: electric pain stimulation thresholds on repeated dosing", "assay_type": "in vivo", "excerpt": "In einer Kammer von 20 x 20 x 25 cm Ausmass, deren Boden - ein Metallgitter aus Stangen darstellt, wurde ein Paar Tiere untergebracht (männliche Mäuse) und es wurde der Wechselstrom durchgelassen. Die Spannung wurde dosenartig auf 5 V solange erhöht, bis der Strom das Piepsen (die Schwelle der emotionellen Reaktivität) und die Schlägerei der Tiere (die Schwelle der Aggressivität) auslöste. Jede Spannungsgrösse wurde innerhalb von 5 sec zweimal in einem Zeitabstand von 20 bis 50 Sekunden aufrechterhalten. Die Kontrolle des Benehmens der Tiere begann man I0 Minuten nach der Einführung der oben erwähnten Verbindungen. Die Angaben sind in Tabellen 3, 4 angeführt.\nZur Untersuchung der Gewöhnung an die Wirkung der erfindungsgemässen Verbindung wurde die Dynamik der Benehmungseffekte an Mäusen beiderlei Geschlechts untersucht. In jeder Gruppe waren je I2 bis I8 Tiere. Die erfindungsgemässe Verbindung und γ -Amino- β - -phenylbuttersäurehydrochlorid wurden intraperitoneal in Dosen von 75 mg/kg bzw. 48 mg/kg zweimal am Tag eingeführt. Es wurden die Körpermasse, der Einfluss auf die motorische Aktivität (im Aktometer) und auf die emotionelle Reaktivität aud dem Wege der elektrischen Schmerzreizung untersucht. Die Tiere wurden innerhalb von 15 bis 20 Tagen untersucht. […] Der sedative Effekt der beanspruchten Verbindung war während der ganzen Versuchsperiode aufrechterhalten (Tabelle 7)."}, "Ratten [3]": {"test_system": "Ratten", "assay": "Swimming test at 2°C, rats", "assay_type": "in vivo", "excerpt": "(§1) Der Einfluss der beanspruchten Verbindung auf die physische Toleranz der Tiere wurde nach dem Schwimmtest der Mäuse und Ratten untersucht. Die Versuche wurden in einer Wanne von […] Fläche durchgeführt. Die Tiergruppe (8 bis I0 Mäuse oder Ratten) wurde ins Wasser gebracht und es wurde die Zeit der Schwimmfähigkeit bestimmt. Die neue Verbindung und γ -Amino- β - -phenylbuttersäurehydrochlorid wurden enteral und intraperitoneal I Stunde oder 3 Stunden vor dem Schwimmbeginn eingeführt. Die Untersuchung wurde sowohl nach der einmaligen als auch nach der chronischen (innerhalb von 20 Tagen einmal täglich) Einführung der genannten Verbindungen durchgeführt. Die Versuche wurden bei 3 Temperaturen angestellt: 2°C (Tabelle I7), 25°C (Tabelle I8) und 40°C (Tabelle I9)."}, "Mäuse [4]": {"test_system": "Mäuse", "assay": "Kalziumchlorid arrhythmia model, LD50 of Kalziumchlorid", "assay_type": "in vivo", "conditions": "Kalziumchlorid i.v. combined with compound 50 mg/kg", "protocol": "Die antiarrhythmischen Eigenschaften der erfindungsgemässen Verbindung wurden auch am Modell der Kalziumchloridarrhythmie untersucht. Der Mäusengruppe (I0 Gruppe) wurde einmalig die Kalziumchloridlösung intravenös im einzelnen und in Kombination mit γ -Amino-β -phenylbuttersäurehydrochlorid eingeführt. Die Dosis der letzteren betrug 50 mg/kg. Es wurde LD₅₀ für Kalziumchlorid bestimmt."}, "Mäuse [5]": {"test_system": "Mäuse", "assay": "Phenamin-induced hypermotility in actometer", "assay_type": "in vivo", "protocol": "Eis wurde die Wirkung der beanspruchten Verbindung auf den durch Phenamin ausgelöston Effekt der Veränderung der Hypermotorik untersucht. Phenamin wurde den Mäusen intraperitoneal in Dosen von 3 und 5 mg/kg I0 Minuten nach der enteralen oder intraperitonealen Einführung der beanspruchten Verbindung und des Pyrazetams eingeführt. Die Tiere wurden in der Kammer des photoelektrischen Aktometers untergebracht. Die motorische Aktivität wurde nach der Zahl der Impulse innerhalb von 60 Minuten bestimmt. Die Angaben sind in der Tabelle 6 angeführt."}, "Mäuse [6]": {"test_system": "Mäuse", "assay": "Hemic hypoxia by intraperitoneal Natriumnitrit, survival", "assay_type": "in vivo", "conditions": "Natriumnitrit 200 mg/kg i.p. 15 min after compound", "protocol": "Die gemische Hypoxie wurde durch die intraperitoneale und subkutane Verabreichung von Natriumnitrit in einer Dosis von 200 mg/kg den Gruppen zu I0 […] I5 min nach der Einführung der Prüfverbindungen erzeugt. Die Angaben sind in der Tabelle I2 (bei der intraperitonealen Einführung von Natriumnitrit) und Tabelle I3 (bei der subkutanen Einführung von Natriumnitrit) angeführt."}, "Ratten [7]": {"test_system": "Ratten", "assay": "Swimming test at 25°C", "assay_type": "in vivo", "conditions": "50,0 mg/kg", "excerpt": "as §1"}, "Mäuse [8]": {"test_system": "Mäuse", "assay": "Strophantin toxicity (arrhythmia), time to death", "assay_type": "in vivo", "excerpt": "Unter Berücksichtigung der Tatsache, dass einige Verbindungen, die ähnlich mit der erfindungsgemässen Verbindung eine sedative Wirkung besitzen, als symptomatische Mittel zur Behandlung von verschiedenen Arrhythmienarten angewendet werden können, wurde der Einfluss der erfindungsgemässen Verbindung auf die toxischen Strophantin-Effekte geprüft, die mit der Herzrhythmusstörung verbunden sind. Dazu wurde bei weissen Mäusen (die Gruppe aus I0 Tieren) die Zeit des Todeseintritts bei der intravenösen Einführung von Strophantin (0,0I%ige wässrige Lösung) im einzelnen und in Kombination mit der neuen Verbindung und mit γ -Amino--β -phenylbuttersäurehydrochlorid bestimmt. Die Ergebnisse dieser Versuche sind in der Tabelle 25 angeführt."}, "Mäuse [9]": {"test_system": "Mäuse", "assay": "Acute toxicity, mice", "assay_type": "in vivo", "protocol": "(§2) Die akute Toxizität der beanspruchten Verbindung wurde an Mäusen und Ratten (die Gruppe aus 9 bis I2 Tieren) bei der intravenösen, intraperitonealen Einführung der beanspruchten Verbindung sowie bei deren Einführung in den Magen bestimmt.\n(§3) Es wurden der letale Ausgang, der Allgemeinzustand, die Vergiftungssymptome registriert. LD₅₀ wurde nach der Methode von Lichtfield und Wilcoxon bestimmt. LD₅₀ der neuen Verbindung beträgt für Mäuse bei der intravenösen Einführung 580 mg/kg, bei der intraperitonealen Einführung I450 mg/kg, bei der Einführung in den Magen 4600 mg/kg; für Ratten bei der intraperitonealen Einführung beträgt LD₅₀ 883 mg/kg, bei der Einführung in den Magen - über I500 mg/kg."}, "Ratten [10]": {"test_system": "Ratten", "assay": "Acute toxicity, rats", "assay_type": "in vivo", "conditions": "intraperitoneal", "protocol": "as §2, §3"}, "[11]": {"assay": "Solubility (description of the substance)", "assay_type": "physicochemical"}, "[12]": {"assay": "Storage stability (description of the substance)", "assay_type": "physicochemical"}, "[13]": {"conditions": "day 1, 48 mg/kg i.p. twice daily"}, "[14]": {"conditions": "day 5, 48 mg/kg i.p. twice daily"}, "[15]": {"conditions": "day 10, 48 mg/kg i.p. twice daily"}, "[16]": {"conditions": "day 1, 75 mg/kg i.p. twice daily"}, "[17]": {"conditions": "day 5, 75 mg/kg i.p. twice daily"}, "[18]": {"conditions": "day 10, 75 mg/kg i.p. twice daily"}, "[19]": {"conditions": "day 15, 75 mg/kg i.p. twice daily"}}, "note": "Counter-ions that a name gives are not always drawn.", "data": [{"compound": "NCC(CC(=O)O)c1ccccc1", "note": "(stereo not drawn) [γ-Amino-β-phenylbutter-säurehydrochlorid, γ -Amino- β -phenylbuttersäurehydrochlorid, reference compound]", "values": [{"measurement": "Latenzperiode", "setting": "Mäuse [1]; 16 mg/kg i.p.", "result": "36,4±6,8 sec"}, {"measurement": "Spannung in V, die Schwelle der Aggressivität", "setting": "Mäuse [2]; [13]", "result": "29±2", "unit": "V"}, {"measurement": "Spannung in V, die Schwelle der emotionellen Reaktivität", "setting": "Mäuse [2]; [13]", "result": "24±2", "unit": "V"}, {"measurement": "Spannung in V, die Schwelle der Aggressivität", "setting": "Mäuse [2]; [14]", "result": "27±4", "unit": "V"}, {"measurement": "Spannung in V, die Schwelle der emotionellen Reaktivität", "setting": "Mäuse [2]; [14]", "result": "23±2", "unit": "V"}, {"measurement": "Spannung in V, die Schwelle der Aggressivität", "setting": "Mäuse [2]; [15]", "result": "26±3", "unit": "V"}, {"measurement": "Spannung in V, die Schwelle der emotionellen Reaktivität", "setting": "Mäuse [2]; [15]", "result": "20±2", "unit": "V"}, {"measurement": "Spannung in V, die Schwelle der Aggressivität", "setting": "Mäuse [2]; day 15, 48 mg/kg i.p. twice daily", "result": "24±2", "unit": "V"}, {"measurement": "Schwimmzeit, Ratten", "setting": "Ratten [3]; 35 mg/kg chronic, 20 days", "result": "328,8±34"}, {"measurement": "Schwimmzeit, Ratten", "setting": "Ratten [3]; 35 mg/kg single", "result": "304,3±29"}, {"measurement": "Einfluss auf LD₅₀ von Kalziumchlorid", "setting": "Mäuse [4]", "result": "keinen Einfluss"}]}, {"compound": "γ -Amino- β -phenylbuttersäureorotat [Erfindungsgemässe Verbindung]", "values": [{"measurement": "Anzahl der Wassereinnahmen für 3 Minuten", "setting": "Mäuse [1]; 25 mg/kg i.p.", "result": "5,6±0,7"}, {"measurement": "Latenzperiode", "setting": "Mäuse [1]; 25 mg/kg i.p.", "result": "52,4±20 sec"}, {"measurement": "Anzahl der Impulse im Aktometer innerhalb von 60 min", "setting": "Mäuse [5]; 50 mg/kg + Phenamin 5 mg/kg i.p. 10 min later", "result": "1884±111"}, {"measurement": "Anzahl der Impulse im Aktometer innerhalb von 60 min", "setting": "Mäuse [5]; 75 mg/kg + Phenamin 5 mg/kg i.p. 10 min later", "result": "1125±141"}, {"measurement": "Anzahl der Impulse im Aktometer innerhalb von 60 min", "setting": "Mäuse [5]; 100 mg/kg + Phenamin 5 mg/kg i.p. 10 min later", "result": "812±62"}, {"measurement": "Anzahl der Impulse im Aktometer innerhalb von 60 min", "setting": "Mäuse [5]; 150 mg/kg + Phenamin 5 mg/kg i.p. 10 min later", "result": "811±98"}, {"measurement": "Spannung in V, die Schwelle der Aggressivität", "setting": "Mäuse [2]; [16]", "result": "30±3", "unit": "V"}, {"measurement": "Spannung in V, die Schwelle der emotionellen Reaktivität", "setting": "Mäuse [2]; [16]", "result": "22±2", "unit": "V"}, {"measurement": "Spannung in V, die Schwelle der Aggressivität", "setting": "Mäuse [2]; [17]", "result": "29±2", "unit": "V"}, {"measurement": "Spannung in V, die Schwelle der emotionellen Reaktivität", "setting": "Mäuse [2]; [17]", "result": "23±2", "unit": "V"}, {"measurement": "Spannung in V, die Schwelle der Aggressivität", "setting": "Mäuse [2]; [18]", "result": "29±2", "unit": "V"}, {"measurement": "Spannung in V, die Schwelle der emotionellen Reaktivität", "setting": "Mäuse [2]; [18]", "result": "24±3", "unit": "V"}, {"measurement": "Spannung in V, die Schwelle der Aggressivität", "setting": "Mäuse [2]; [19]", "result": "34±3", "unit": "V"}, {"measurement": "Spannung in V, die Schwelle der emotionellen Reaktivität", "setting": "Mäuse [2]; [19]", "result": "22±2", "unit": "V"}, {"measurement": "Überlebensdauer", "setting": "Mäuse [6]; 50,0 mg/kg", "result": "33,8±1,2 min"}, {"measurement": "Überlebensdauer", "setting": "Mäuse [6]; 100,0 mg/kg", "result": "53,1±4,1 min"}, {"measurement": "Überlebensdauer", "setting": "Mäuse [6]; 200,0 mg/kg", "result": "46,8±2,7 min"}, {"measurement": "Schwimmzeit, Ratten", "setting": "Ratten [3]; 30 mg/kg chronic, 20 days", "result": "390,0±56"}, {"measurement": "Schwimmzeit, Ratten", "setting": "Ratten [7]", "result": "8,2±0,5"}, {"measurement": "Zeit des Todeseintritts", "setting": "Mäuse [8]; 50 mg/kg + Strophantin 1,7 mg/kg i.v.", "result": "22,3 (8,9 - 35,6) min"}, {"measurement": "Verlängerung der Zeit des Todeseintritts der Tiere", "setting": "Mäuse [8]; 50 mg/kg, Strophantin", "result": "2,5 fache"}, {"measurement": "LD₅₀", "setting": "Mäuse [9]; into the stomach", "result": 4600, "unit": "mg/kg"}, {"measurement": "LD₅₀", "setting": "Mäuse [9]; intravenous", "result": 580, "unit": "mg/kg"}, {"measurement": "LD₅₀", "setting": "Ratten [10]", "result": 883, "unit": "mg/kg"}, {"measurement": "Löslichkeit in wässrigen Alkalilösungen", "setting": "[11]; aqueous alkali solutions", "result": "löslich"}, {"measurement": "Wasserlöslichkeit", "setting": "[11]; water", "result": "schwer wasserlöslich"}, {"measurement": "Beständigkeit bei der Aufbewahrung", "setting": "[12]", "result": "beständig"}]}]}
